# Experimental data published in patent US9150588B2, “Substituted pyridazin-4(1H)-ones as phosphodiesterase 10A inhibitors” (TAKEDA PHARMACEUTICAL COMPANY LIMITED, priority 2010, dated 2015).
# Target: T1, human PDE10A enzyme (Homo sapiens, UniProt Q9Y233)
# T1 construct: Human PDE10A full-length gene was transfected into Sf9 or COS-7 cells; His-tag; made in house; host or cells: Sf9 or COS-7 cells
# Assay: PDE10A Enzyme Activity Inhibition Test (SPA, [3H]cGMP substrate)
# Assay type: biochemical
# Conditions: at 100 nM compound; read-out: PDE10A enzyme activity inhibition rate
# Protocol: PDE10A Enzyme Activity Inhibition Test
# Human PDE10A full-length gene was transfected into Sf9 or COS-7 cells, the cells were disrupted and centrifuged, and human PDE10A enzyme was obtained from the residue. The enzyme extracted from Sf9 cells was partially purified using His-tag affinity column. The enzyme was stored at −70° C. until use. The PDE activity was measured using an SPA (Scintillation Proximity Assay) (GE Healthcare). To measure the inhibitory activity of the compound, 10 μL of serially diluted compound was reacted with 20 μL of PDE enzyme in an assay buffer (50 mM HEPES-NaOH, 8.3 mM MgCl2, 1.7 mM EGTA, 0.1% BSA (pH 7.4)) for 30 min at room temperature. The final concentration of DMSO in the reaction mixture was 1 percent. The compounds were evaluated in duplicate in 96-well half-area plates (Corning). To start the reaction, 10 μL of substrate [^3H] cGMP (25 and 50 nM; GE Healthcare and PerkinElmer, respectively) was added to 40 μL. After 60 min of reaction at room temperature, yttrium SPA beads containing zinc sulphate were added (6 mg/mL, 20 μL) to terminate the PDE reaction. After standing still for 1 hr, the measurement was performed using a scintillation counter (PerkinElmer) and the PDE10A enzyme activity inhibition rate was calculated. The inhibition rate was calculated based on the control containing enzyme and DMSO as 0% and the control without enzyme as 100%.
# T1 sequence (Q9Y233 267-1055): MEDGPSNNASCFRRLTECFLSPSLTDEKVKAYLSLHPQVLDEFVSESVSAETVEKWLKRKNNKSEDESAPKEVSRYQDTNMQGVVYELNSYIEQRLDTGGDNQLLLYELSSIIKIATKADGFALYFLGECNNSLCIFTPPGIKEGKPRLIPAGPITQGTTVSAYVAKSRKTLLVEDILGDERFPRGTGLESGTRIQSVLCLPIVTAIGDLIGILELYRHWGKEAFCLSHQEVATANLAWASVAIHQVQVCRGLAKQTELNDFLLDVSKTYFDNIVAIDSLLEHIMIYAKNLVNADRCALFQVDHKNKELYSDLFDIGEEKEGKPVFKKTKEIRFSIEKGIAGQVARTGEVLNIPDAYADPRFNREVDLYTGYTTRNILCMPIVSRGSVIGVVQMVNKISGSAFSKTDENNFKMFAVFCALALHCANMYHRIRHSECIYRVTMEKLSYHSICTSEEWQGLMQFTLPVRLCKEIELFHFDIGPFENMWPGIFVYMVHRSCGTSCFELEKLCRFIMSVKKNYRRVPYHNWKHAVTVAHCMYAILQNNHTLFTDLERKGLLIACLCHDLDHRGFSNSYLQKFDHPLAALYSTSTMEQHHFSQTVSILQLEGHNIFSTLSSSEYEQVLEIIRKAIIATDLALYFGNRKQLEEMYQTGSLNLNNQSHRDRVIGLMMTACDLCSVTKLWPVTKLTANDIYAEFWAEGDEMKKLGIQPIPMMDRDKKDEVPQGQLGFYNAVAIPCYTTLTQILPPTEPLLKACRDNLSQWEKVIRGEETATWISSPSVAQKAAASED
row,inhibition at 0.1 µM,Compound
1,< 50%,"COc1cn(Cc2ccccc2C(F)(F)F)nc(-c2ccnn2-c2ccccc2)c1=O [Example 102, 5-methoxy-3-(1-phenyl-1H-pyrazol-5-yl)-1-[2-(trifluoromethyl)benzyl]pyridazin-4(1H)-one]"
2,< 50%,"O=c1ccc(-c2ccccc2F)cn1-c1ccnn1-c1ccccc1 [Example 20, 5-(2-fluorophenyl)-1-(1-phenyl-1H-pyrazol-5-yl)pyridin-2(1H)-one]"
3,≥ 50%,"COc1cn(C2CCN(c3ncccc3C#N)CC2)nc(-c2ccnn2-c2ccccc2)c1=O [Example 56, 2-{4-[5-methoxy-4-oxo-3-(1-phenyl-1H-pyrazol-5-yl)pyridazin-1(4H)-yl]piperidin-1-yl}pyridine-3-carbonitrile]"
4,≥ 50%,"O=c1c(-c2ccnn2-c2ccccc2)nn(-c2cccc(C(F)(F)F)c2)c2ccoc12 [Example 1, 3-(1-phenyl-1H-pyrazol-5-yl)-1-[3-(trifluoromethyl)phenyl]furo[3,2-c]pyridazin-4(1H)-one]"
5,< 50%,"O=c1ccn(-c2cccc(C(F)(F)F)c2)cc1-c1ccnn1-c1ccccc1 [Example 18, 3-(1-phenyl-1H-pyrazol-5-yl)-1-[3-(trifluoromethyl)phenyl]pyridin-4(1H)-one]"
6,< 50%,"O=c1cc(-c2ccccc2)sc(-c2ccnn2-c2ccccc2)c1 [Example 140, 2-phenyl-6-(1-phenyl-1H-pyrazol-5-yl)-4H-thiopyran-4-one]"
7,< 50%,"COc1cn(S(=O)(=O)c2ccccc2)nc(-c2ccnn2-c2ccccc2)c1=O [Example 60, 5-methoxy-3-(1-phenyl-1H-pyrazol-5-yl)-1-(phenylsulfonyl)pyridazin-4(1H)-one]"
8,< 50%,"O=c1cc(-c2ccnn2-c2ccccc2)nc(-c2ccccc2)[nH]1 [Example 17, 2-phenyl-6-(1-phenyl-1H-pyrazol-5-yl)pyrimidin-4(3H)-one]"
9,≥ 50%,"COc1cn(C2CN(c3ncccc3C(F)(F)F)C2)nc(-c2ccnn2-c2ccccc2)c1=O [Example 98, 5-methoxy-3-(1-phenyl-1H-pyrazol-5-yl)-1-{1-[3-(trifluoromethyl)pyridin-2-yl]azetidin-3-yl}pyridazin-4(1H)-one]"
10,< 50%,"COc1cn(C2CCCc3ccccc32)nc(-c2ccnn2-c2ccccc2)c1=O (centres unmarked) [Example 97, 5-methoxy-3-(1-phenyl-1H-pyrazol-5-yl)-1-(1,2,3,4-tetrahydronaphthalen-1-yl)pyridazin-4(1H)-one]"
11,< 50%,"O=c1[nH]cc(-c2ccccc2)nc1-c1ccnn1-c1ccccc1 [Example 13, 5-phenyl-3-(1-phenyl-1H-pyrazol-5-yl)pyrazin-2(1H)-one]"
12,≥ 50%,"COc1cn(C2CCN(c3nccs3)CC2)nc(-c2ccnn2-c2ccccc2)c1=O [Example 53, 5-methoxy-3-(1-phenyl-1H-pyrazol-5-yl)-1-[1-(1,3-thiazol-2-yl)piperidin-4-yl]pyridazin-4(1H)-one]"
13,≥ 50%,"O=c1ccn(C2CCN(c3ccccc3)CC2)nc1-c1ccnn1-c1ccccc1 [Example 31, 1-(1-phenylpiperidin-4-yl)-3-(1-phenyl-1H-pyrazol-5-yl)pyridazin-4(1H)-one]"
14,< 50%,"O=c1ccn(C2CCN(Cc3ccccc3)CC2)nc1-c1ccnn1-c1ccccc1 [Example 28, 1-(1-benzylpiperidin-4-yl)-3-(1-phenyl-1H-pyrazol-5-yl)pyridazin-4(1H)-one]"
15,≥ 50%,"O=c1c(-c2ccnn2-c2ccccc2)nn(-c2cccc(C(F)(F)F)c2)c2c1OCC2 [Example 2, 3-(1-phenyl-1H-pyrazol-5-yl)-1-[3-(trifluoromethyl)phenyl]-6,7-dihydrofuro[3,2-c]pyridazin-4(1H)-one]"
16,< 50%,"O=C(c1ccccc1)N1CCC(n2ccc(=O)c(-c3ccnn3-c3ccccc3)n2)CC1 [Example 49, 1-[1-(phenylcarbonyl)piperidin-4-yl]-3-(1-phenyl-1H-pyrazol-5-yl)pyridazin-4(1H)-one]"
17,< 50%,"O=c1ccn(C2CCCN(c3ccccc3)C2)nc1-c1ccnn1-c1ccccc1 (centres unmarked) [Example 46, 1-(1-phenylpiperidin-3-yl)-3-(1-phenyl-1H-pyrazol-5-yl)pyridazin-4(1H)-one]"
18,< 50%,"O=c1cc(-c2ccccc2)oc(-c2ccnn2-c2ccccc2)c1O [Example 14, 3-hydroxy-6-phenyl-2-(1-phenyl-1H-pyrazol-5-yl)-4H-pyran-4-one]"
19,< 50%,"COc1cn(CC2CC2)nc(-c2ccnn2-c2ccccc2)c1=O [Example 59, 1-(cyclopropylmethyl)-5-methoxy-3-(1-phenyl-1H-pyrazol-5-yl)pyridazin-4(1H)-one]"

# Continued, compound first:
row,Compound,inhibition at 0.1 µM
1,"COc1cn(C2CCc3ccccc3C2)nc(-c2ccnn2-c2ccccc2)c1=O (centres unmarked) [Example 58, 5-methoxy-3-(1-phenyl-1H-pyrazol-5-yl)-1-(1,2,3,4-tetrahydronaphthalen-2-yl)pyridazin-4(1H)-one]",≥ 50%
2,"COc1cn(-c2cccc(C(F)(F)F)c2)nc(C2=NC(C)(C)C(=O)N2c2ccccc2)c1=O [Example 142, 3-(4,4-dimethyl-5-oxo-1-phenyl-4,5-dihydro-1H-imidazol-2-yl)-5-methoxy-1-[3-(trifluoromethyl)phenyl]pyridazin-4(1H)-one]",< 50%
3,"O=c1ccc(-c2cccc(C(F)(F)F)c2)nn1-c1ccnn1-c1ccccc1 [Example 21, 2-(1-phenyl-1H-pyrazol-5-yl)-6-[3-(trifluoromethyl)phenyl]pyridazin-3(2H)-one]",< 50%
4,"COc1cn(Cc2cccc(-c3ccccc3)c2)nc(-c2ccnn2-c2ccccc2)c1=O [Example 61, 1-(biphenyl-3-ylmethyl)-5-methoxy-3-(1-phenyl-1H-pyrazol-5-yl)pyridazin-4(1H)-one]",≥ 50%
5,"O=c1[nH]cc(-c2ccccc2)cc1-c1ccnn1-c1ccccc1 [Example 16, 5-phenyl-3-(1-phenyl-1H-pyrazol-5-yl)pyridin-2(1H)-one]",≥ 50%
6,"O=c1ccn(C2CCN(c3ccccc3C(F)(F)F)CC2)nc1-c1ccnn1-c1ccccc1 [Example 64, 3-(1-phenyl-1H-pyrazol-5-yl)-1-{1-[2-(trifluoromethyl)phenyl]piperidin-4-yl}pyridazin-4(1H)-one]",< 50%
7,"O=c1[nH]nc(-c2ccccc2)cc1-c1ccnn1-c1ccccc1 [Example 15, 6-phenyl-4-(1-phenyl-1H-pyrazol-5-yl)pyridazin-3(2H)-one]",< 50%
8,"O=c1cc2n(nc1-c1ccnn1-c1ccccc1)-c1ccccc1OC2 [Example 11, 2-(1-phenyl-1H-pyrazol-5-yl)pyridazino[6,1-c][1,4]benzoxazin-3(5H)-one]",≥ 50%
9,"COc1cn(Cc2ccccc2)nc(-c2ccnn2-c2ccccc2)c1=O [Example 23, 1-benzyl-5-methoxy-3-(1-phenyl-1H-pyrazol-5-yl)pyridazin-4(1H)-one]",≥ 50%
10,"O=c1cnn(-c2cccc(C(F)(F)F)c2)cc1-c1ccnn1-c1ccccc1 [Example 19, 5-(1-phenyl-1H-pyrazol-5-yl)-1-[3-(trifluoromethyl)phenyl]pyridazin-4(1H)-one]",< 50%
11,"COc1cn(C2=CCN(Cc3ccccc3)CC2)nc(-c2ccnn2-c2ccccc2)c1=O [Example 25, 1-(1-benzyl-1,2,3,6-tetrahydropyridin-4-yl)-5-methoxy-3-(1-phenyl-1H-pyrazol-5-yl)pyridazin-4(1H)-one]",≥ 50%
12,"COc1nc(-c2ccccc2)cn(-c2ccnn2-c2ccccc2)c1=O [Example 141, 3-methoxy-5-phenyl-1-(1-phenyl-1H-pyrazol-5-yl)pyrazin-2(1H)-one]",< 50%
13,"COc1c(-c2ccnn2-c2ccccc2)oc(-c2ccccc2)cc1=O [Example 12, 3-methoxy-6-phenyl-2-(1-phenyl-1H-pyrazol-5-yl)-4H-pyran-4-one]",< 50%
